The CheMixHub viscosity set
Where “and” joins values, the source holds several entries; their conditions need not be identical. Identical values can stand only once.

Test: xn = mol fraction of the nth substance listed

Cc1ccccc1C + Cc1ccccc1
viscosity [mPa·s], 101.33 kPa
Details | x2 = 0.3003 | x2 = 0.3607 | x2 = 0.5223 | x2 = 0.6669 | x2 = 0.8205
293.15 K | 0.722 | 0.708 | 0.67 | 0.64 | 0.616
303.15 K | 0.636 | 0.626 | 0.601 | 0.567 | 0.546
313.15 K | 0.568 | 0.557 | 0.528 | 0.508 | 0.489
323.15 K | 0.507 | 0.5 | 0.472 | 0.456 | 0.441

NC(N)=O + c1ccncc1
Details | viscosity [mPa·s]
298.15 K, 101 kPa, x1 = 0.012 | 0.939

CCCCCCCCCCO + CCCCCCCCCCCCCCCC
100 kPa, x2 = 0.0921
Details | viscosity [mPa·s]
298.2 K | 9.77
308.2 K | 6.71
318.2 K | 4.76

Nc1ccc(S(N)(=O)=O)cc1 + O
viscosity [mPa·s], 101 kPa
Details | x1 = 0.0001938 | x1 = 0.000331 | x1 = 0.0004378 | x1 = 0.0004556 | x1 = 0.000456 | x1 = 0.0005923 | x1 = 0.0007136
298.15 K | 0.8931 | 0.895 | 0.8965 | 0.897 | – | 0.899 | 0.9008
308.15 K | 0.7207 | 0.7224 | 0.7234 | 0.724 | – | 0.7254 | –
318.15 K | 0.5965 | 0.5979 | 0.5992 | – | 0.5993 | 0.6007 | 0.6015

c1ccc(Oc2ccccc2)cc1 + CC(C)=O
298.15 K, 101 kPa
Details | viscosity [mPa·s]
x2 = 0.4843 | 1.339
x2 = 0.7306 | 0.714
x2 = 0.894 | 0.439

CC(C)[C@@H]1CC[C@@H](C)C[C@H]1O + CCCCCCCCCO
Details | viscosity [mPa·s]
298.15 K, 101.33 kPa, x1 = 0.5 | 35.03

Cc1ccc(Cl)cc1 + CCCCCC
viscosity [mPa·s], 100 kPa
Details | 298.15 K | 308.15 K | 318.15 K
x1 = 0.0878 | 0.332 | 0.307 | 0.285
x1 = 0.1581 | 0.352 | 0.324 | 0.3
x1 = 0.2446 | 0.379 | 0.348 | 0.322
x1 = 0.2988 | 0.397 | 0.364 | 0.337
x1 = 0.4004 | 0.435 | 0.398 | 0.367
x1 = 0.47 | 0.466 | 0.426 | 0.393
x1 = 0.5234 | 0.492 | 0.448 | 0.412
x1 = 0.572 | 0.519 | 0.47 | 0.429
x1 = 0.622 | 0.548 | 0.493 | 0.449
x1 = 0.681 | 0.584 | 0.524 | 0.475
x1 = 0.7857 | 0.654 | 0.584 | 0.53
x1 = 0.8603 | 0.707 | 0.632 | 0.572
x1 = 0.9366 | 0.773 | 0.687 | 0.618

OCCOCCOCCO + CC(C)=O
298.1 K, 101 kPa
Details | viscosity [mPa·s]
x1 = 0.2 | 1.038
x1 = 0.4 | 2.75
x1 = 0.5 | 4.48
x1 = 0.6 | 7.168
x1 = 0.8 | 17.04

CCCCCCCCCCCC + CCCCCCCC
Details | viscosity
298.15 K, 101.33 kPa, x2 = 0.1117 | 1.233 mPa·s
298.15 K, 101.33 kPa, x2 = 0.2101 | 1.138 mPa·s
298.15 K, 101.33 kPa, x2 = 0.3025 | 1.038 mPa·s
298.15 K, 101.33 kPa, x2 = 0.4085 | 0.9477 mPa·s
298.15 K, 101.33 kPa, x2 = 0.5069 | 0.8672 mPa·s
298.15 K, 101.33 kPa, x2 = 0.6088 | 0.7703 mPa·s
298.15 K, 101.33 kPa, x2 = 0.7035 | 0.71 mPa·s
298.15 K, 101.33 kPa, x2 = 0.804 | 0.6353 mPa·s
298.15 K, 101.33 kPa, x2 = 0.9048 | 0.5647 mPa·s
298.2 K, 100 kPa, x2 = 0.5 | 0.869 mPa·s
323.15 K, 100 kPa, x2 = 0.434 | 0.658 mPa·s and 0.657 mPa·s
323.15 K, 100 kPa, x2 = 0.743 | 0.502 mPa·s and 0.501 mPa·s
